This note sets out measurements from patent US20240059703A1 (AMGEN INC., priority 2021, published 2024).

What is called IC50 is the concentration that inhibits the measured activity by half.

Each structure is given as a SMILES string. Where only a bound is given, the exact number is not on record here.

In test [1] the target is KRAS G12C (Homo sapiens (Human), UniProt P01116, C118A/G12C). As to the kind of experiment: 2 h coupled exchange assay. The settings on record: Avg 2 h Coupled exchange IC50, 2 h compound pre-incubation. The format is biochemical. The method, then: The term “2 h coupled exchange assay” or “20 h coupled exchange assay” as used herein refers to the assay described in the Section entitled “BIOLOGICAL EVALUATION.”

Test [2] deals with MIA PaCa-2 (human pancreatic carcinoma) cells. Put plainly: Cell Viability Assay (CellTiter-Glo), MIA PaCa-2. The format is cell-based. The method, then:
Serially-diluted compound or DMSO was added to the cells, and plates were incubated at 37° C., 5% CO2 for 72 h. Cell viability was measured using a CellTiter-Glo® Luminescent Cell Viability Assay kit (Promega) according to the manufacturer's protocol. The luminescence signal of treated samples was normalized to DMSO control, and data were analyzed using a 4-parameter logistic model to calculate IC50 values.

Test [3] relates to A549 (human lung carcinoma) cells. Put plainly: Cell Viability Assay (CellTiter-Glo), A549. It counts as cell-based. The procedure, abridged:
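MIA PaCa-2 or A549 cells in RPMI 1640 with 10% FBS were seeded at 1.67E+04 cells/mL and incubated overnight. Serially diluted compound was then added for 72 h at 37° C, 5% CO2. Viability read by CellTiter-Glo luminescence, normalized to DMSO, with IC50 from a 4-parameter logistic fit.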
(In ATP-based viability assays light output follows the ATP content of the culture.)

The mark [4] stands for this setting: SOS-mediated nucleotide exchange.

Chain of KRAS G12C (P01116 other isoform, or with tags, fused parts or gaps G12C/C118A): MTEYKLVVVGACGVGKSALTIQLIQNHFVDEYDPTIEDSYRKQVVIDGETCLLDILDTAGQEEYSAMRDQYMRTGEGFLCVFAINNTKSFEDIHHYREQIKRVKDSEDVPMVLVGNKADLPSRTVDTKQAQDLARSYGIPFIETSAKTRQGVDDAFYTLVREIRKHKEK

Take `C=CC(=O)N1CC2(CCN(c3nc4c(c(-c5cc(O)ccc5C)c3C#N)[C@@H]3CC[C@H]4C3)C2)C1` (single isomer, unassigned) [Example 14-11]: the IC50 in test [1] (setting [4]) is 38 nM; in test [2] (Homo sapiens, MIA PaCa-2, 72 h), 149 nM; in test [3] (Homo sapiens, A549, 72 h), > 5000 nM.
As to `C=CC(=O)N1CC2(CCN(c3nc4cc(-c5scnc5C)c(C)cc4c(-c4ccccc4Cl)c3C#N)C2)C1` [Example 20-10, 2-(2-acryloyl-2,6-diazaspiro[3.4]octan-6-yl)-4-(2-chlorophenyl)-6-methyl-7-(4-methylthiazol-5-yl)quinoline-3-carbonitrile], the 50% inhibitory concentration (IC50) in test [1] stood at 890 nM; in test [2] (Homo sapiens, MIA PaCa-2, 72 h), 5380 nM; in test [3] (Homo sapiens, A549, 72 h) it was 6780 nM.
With `C=CC(=O)N1CC2(CCN(c3nc4c(c(-c5c(C)ccc6cnn(C)c56)c3C#N)COC(C)(C)C4)C2)C1` (single isomer, unassigned) [Example 13-60, (P)-4-(1,6-dimethyl-1H-indazol-7-yl)-7,7-dimethyl-2-(2-(2-propenoyl)-2,6-diazaspiro[3.4]octan-6-yl)-7,8-dihydro-5H-pyrano[4,3-b]pyridine-3-carbonitrile], the IC50 is 63 nM in test [1] (setting [4]); 146 nM in test [2] (Homo sapiens, MIA PaCa-2, 72 h); > 5000 nM in test [3] (Homo sapiens, A549, 72 h).
`C=CC(=O)N1CC2(CCN(c3nc4c(c(-c5cc(O)ccc5Cl)c3C#N)CCN(c3scnc3C)C4)C2)C1` (single isomer, unassigned) [Example 21-25, (M)-4-(2-chloro-5-hydroxyphenyl)-7-(4-methyl-1,3-thiazol-5-yl)-2-(2-(2-propenoyl)-2,6-diazaspiro[3.4]octan-6-yl)-5,6,7,8-tetrahydro-1,7-naphthyridine-3-carbonitrile]: the half-maximal inhibitory concentration (IC50) in test [1] came out at 3260 nM; in test [2] (72 h) it was 7400 nM; in test [3] (72 h), 13400 nM.
Regarding `C=CC(=O)N1CC2(CCN(c3nc4c(c(-c5c(C)ccc6[nH]ncc56)c3C#N)C[C@H]3C[C@@H]4C3(C)C)C2)C1` [Example 13-93, (6R,8R)-2-(2-acryloyl-2,6-diazaspiro[3.4]octan-6-yl)-7,7-dimethyl-4-(5-methyl-1H-indazol-4-yl)-5,6,7,8-tetrahydro-6,8-methanoquinoline-3-carbonitrile], the IC50 in test [1] (setting [4]) was 53 nM; in test [2] (Homo sapiens, MIA PaCa-2, 72 h) it was 13 nM; in test [3] (Homo sapiens, A549, 72 h), > 5000 nM.
The matching figures for `C=CC(=O)N1CC2(CCN(c3nc4c(F)cccc4c(-c4c(C)ccc5[nH]ncc45)c3C#N)C2)C1` [Example 1-4, 8-fluoro-4-(5-methyl-1H-indazol-4-yl)-2-(2-(2-propenoyl)-2,6-diazaspiro[3.4]octan-6-yl)-3-quinolinecarbonitrile]: 290 nM, 1390 nM and 4940 nM.
Take `C=CC(=O)N1CC2(CCN(c3nc4c(c(-c5ccccc5F)c3C#N)CCN(C(C)CN(C)C)C4)C2)C1` [Example 21-38, 7-((2R)-1-(dimethylamino)-2-propanyl)-4-(2-fluorophenyl)-2-(2-(2-propenoyl)-2,6-diazaspiro[3.4]octan-6-yl)-5,6,7,8-tetrahydro-1,7-naphthyridine-3-carbonitrile 7-((2S)-1-(dimethylamino)-2-propanyl)-4-(2-fluorophenyl)-2-(2-(2-propenoyl)-2,6-diazaspiro[3.4]octan-6-yl)-5,6,7,8-tetrahydro-1,7-naphthyridine-3-carbonitrile]: the IC50 in test [1] is 178 nM; in test [2] (Homo sapiens, MIA PaCa-2, 72 h) it was 196 nM; in test [3] (Homo sapiens, A549, 72 h), > 5000 nM.
Take `C=CC(=O)N1CC2(CCN(c3nc4c(c(-c5cccc6cc(O)ccc56)c3C)CCN(C3CC3)C4)C2)C1` [Example 18-17, 1-(6-(7-cyclopropropyl-4-(6-hydroxy-1-naphthalenyl)-3-methyl-5,6,7,8-tetrahydro-1,7-naphthyridin-2-yl)-2,6-diazaspiro[3.4]octan-2-yl)-2-propen-1-one]: the IC50 in test [1] is 79 nM; in test [2] (Homo sapiens, MIA PaCa-2, 72 h), 133 nM; in test [3] (Homo sapiens, A549, 72 h) it was > 5000 nM.
As for `C=CC(=O)N1CC2(CCN(c3nc4c(c(-c5cccc6cn[nH]c56)c3C#N)C[C@H]3C[C@@H]4C3(C)C)C2)C1` (single isomer, unassigned) [Example 14-29], the IC50 in test [1] is 58 nM; in test [2] (Homo sapiens, MIA PaCa-2, 72 h) it was 143 nM; in test [3] (Homo sapiens, A549, 72 h) it was > 5000 nM.
For the compound `C=CC(=O)N1CC2(CCN(c3nc4c(c(-c5c(C)ccc6[nH]ncc56)c3C#N)COC(C)(C)C4)C2)C1` [Example 13-95, 2-(2-acryloyl-2,6-diazaspiro[3.4]octan-6-yl)-7,7-dimethyl-4-(5-methyl-1H-indazol-4-yl)-7,8-dihydro-5H-pyrano[4,3-b]pyridine-3-carbonitrile], the concentration for half-maximal inhibition (IC50) in test [1] (setting [4]) is 34 nM; in test [2] (Homo sapiens, MIA PaCa-2, 72 h), 92 nM; in test [3] (Homo sapiens, A549, 72 h) it was > 5000 nM.
On to `C=CC(=O)N1CC2(CCN(c3nc4c(c(-c5cc(O)ccc5Cl)c3C#N)CCN(C3CCCN(C)C3)C4)C2)C1` [Example 21-36, 4-(2-chloro-5-hydroxyphenyl)-7-((3R)-1-methyl-3-piperidinyl)-2-(2-(2-propenoyl)-2,6-diazaspiro[3.4]octan-6-yl)-5,6,7,8-tetrahydro-1,7-naphthyridine-3-carbonitrile 4-(2-chloro-5-hydroxyphenyl)-7-((3S)-1-methyl-3-piperidinyl)-2-(2-(2-propenoyl)-2,6-diazaspiro[3.4]octan-6-yl)-5,6,7,8-tetrahydro-1,7-naphthyridine-3-carbonitrile], for which the concentration for half-maximal inhibition (IC50) was 167 nM in test [1]; 174 nM in test [2] (Homo sapiens, MIA PaCa-2, 72 h); > 5000 nM in test [3] (Homo sapiens, A549, 72 h).
With `C=CC(=O)N1CC2(CCN(c3nc4cc(-c5nccs5)cn4c(-c4c(C)ccc5[nH]ncc45)c3C#N)C2)C1` [Example 1-54], the IC50 in test [1] (setting [4]) was 122 nM; in test [2] (Homo sapiens, MIA PaCa-2, 72 h), 976 nM; in test [3] (Homo sapiens, A549, 72 h), > 5000 nM.
Regarding `C=CC(=O)N1CC2(CCN(c3nc4c(c(-c5ccc(F)c6sc(N)nc56)c3C)COC(C)(C)C4)C2)C1` (single isomer, unassigned) [Example 14-38, (P)-1-(6-(4-(2-amino-7-fluoro-1,3-benzothiazol-4-yl)-3,7,7-trimethyl-7,8-dihydro-5H-pyrano[4,3-b]pyridin-2-yl)-2,6-diazaspiro[3.4]octan-2-yl)-2-propen-1-one], the IC50 in test [1] is 63 nM; in test [2] (Homo sapiens, MIA PaCa-2, 72 h), 123 nM; in test [3] (Homo sapiens, A549, 72 h), > 5000 nM.
The corresponding values for `C=CC(=O)N1CC2(CCN(c3nc4cc(-c5scnc5C)cnc4c(-c4ccc(F)cc4F)c3C#N)C2)C1` [Example 19-5, 4-(2,4-difluorophenyl)-7-(4-methyl-1,3-thiazol-5-yl)-2-(2-(2-propenoyl)-2,6-diazaspiro[3.4]octan-6-yl)-1,5-naphthyridine-3-carbonitrile] are 96 nM, 452 nM and > 5000 nM.
For the compound `C=CC(=O)N1CC2(CCN(c3nc4c(c(-c5ccc(F)cc5F)c3C#N)CCN(C(C)C)C4)[C@H]2C)C1` [Example 21-18, 4-(2,4-difluorophenyl)-2-((5S)-5-methyl-2-(2-propenoyl)-2,6-diazaspiro[3.4]octan-6-yl)-7-(2-propanyl)-5,6,7,8-tetrahydro-1,7-naphthyridine-3-carbonitrile], the IC50 was 853 nM in test [1]; 2820 nM in test [2] (Homo sapiens, MIA PaCa-2, 72 h); 10200 nM in test [3] (Homo sapiens, A549, 72 h).
`C=CC(=O)N1CC2(CCN(c3nc4c(c(-c5ncccc5C)c3C#N)CC[C@](C)(c3scnc3C)C4)C2)C1` [Example 23-9, (7S)-7-methyl-4-(3-methyl-2-pyridinyl)-7-(4-methyl-1,3-thiazol-5-yl)-2-(2-(2-propenoyl)-2,6-diazaspiro[3.4]octan-6-yl)-5,6,7,8-tetrahydro-3-quinolinecarbonitrile]: the IC50 stood at 531 nM in test [1]; 916 nM in test [2] (Homo sapiens, MIA PaCa-2, 72 h); 16200 nM in test [3] (Homo sapiens, A549, 72 h).
Regarding `C=CC(=O)N1CC2(CCN(c3nc4c(c(-c5ccc(F)cc5F)c3C)CCN(c3scnc3C)C4)C2)C1` [Example 18-12, 1-(6-(4-(2,4-difluorophenyl)-3-methyl-7-(4-methyl-1,3-thiazol-5-yl)-5,6,7,8-tetrahydro-1,7-naphthyridin-2-yl)-2,6-diazaspiro[3.4]octan-2-yl)-2-propane-1-one], the half-inhibitory concentration (IC50) is 172 nM in test [1]; 335 nM in test [2] (Homo sapiens, MIA PaCa-2, 72 h); 12500 nM in test [3] (Homo sapiens, A549, 72 h).
Consider `C=CC(=O)N1CC2(CCN(c3nc4c(c(-c5c(C)ccc6[nH]ncc56)c3C#N)CCC(C)(C)C4)[C@H]2CF)C1` (stereo in doubt) [Example 13-80, (M)-2-((5S)-5-(fluoromethyl)-2-(2-propenoyl)-2,6-diazaspiro[3.4]octan-6-yl)-7,7-dimethyl-4-(5-methyl-1H-indazol-4-yl)-5,6,7,8-tetrahydro-3-quinolinecarbonitrile and (P)-2-((5R)-5-(fluoromethyl)-2-(2-propenoyl)-2,6-diazaspiro[3.4]octan-6-yl)-7,7-dimethyl-4-(5-methyl-1H-indazol-4-yl)-5,6,7,8-tetrahydro-3-quinolinecarbonitrile], for which the IC50 in test [1] (setting [4]) was 45 nM; in test [2] (Homo sapiens, MIA PaCa-2, 72 h), 952 nM; in test [3] (Homo sapiens, A549, 72 h), > 5000 nM.
The corresponding values for `C=CC(=O)N1CC2(CCN(c3nc4c(c(-c5cccc6cccc(C)c56)n3)CCC(C)(C)C4)C2)C1` [Example 1-30, 1-(6-(7,7-dimethyl-4-(8-methyl-1-naphthalenyl)-5,6,7,8-tetrahydro-2-quinazolinyl)-2,6-diazaspiro[3.4]octan-2-yl)-2-propen-1-one] are 3460 nM, > 5000 nM and 10300 nM.
